From US9776995B2, “Bicyclic sulfonamide compounds as sodium channel inhibitors” (AMGEN INC., priority 2013, dated 2017)
pIC50: −log10 of the molar value. One block for each compound: values may come before it.

Molecular target: Nav 1.7 (Homo sapiens (Human), UniProt Q15858)
Assay: in-vitro Nav 1.7 PX data
Format: cell-based

Nav 1.7, sequence (Q15858 whole entry): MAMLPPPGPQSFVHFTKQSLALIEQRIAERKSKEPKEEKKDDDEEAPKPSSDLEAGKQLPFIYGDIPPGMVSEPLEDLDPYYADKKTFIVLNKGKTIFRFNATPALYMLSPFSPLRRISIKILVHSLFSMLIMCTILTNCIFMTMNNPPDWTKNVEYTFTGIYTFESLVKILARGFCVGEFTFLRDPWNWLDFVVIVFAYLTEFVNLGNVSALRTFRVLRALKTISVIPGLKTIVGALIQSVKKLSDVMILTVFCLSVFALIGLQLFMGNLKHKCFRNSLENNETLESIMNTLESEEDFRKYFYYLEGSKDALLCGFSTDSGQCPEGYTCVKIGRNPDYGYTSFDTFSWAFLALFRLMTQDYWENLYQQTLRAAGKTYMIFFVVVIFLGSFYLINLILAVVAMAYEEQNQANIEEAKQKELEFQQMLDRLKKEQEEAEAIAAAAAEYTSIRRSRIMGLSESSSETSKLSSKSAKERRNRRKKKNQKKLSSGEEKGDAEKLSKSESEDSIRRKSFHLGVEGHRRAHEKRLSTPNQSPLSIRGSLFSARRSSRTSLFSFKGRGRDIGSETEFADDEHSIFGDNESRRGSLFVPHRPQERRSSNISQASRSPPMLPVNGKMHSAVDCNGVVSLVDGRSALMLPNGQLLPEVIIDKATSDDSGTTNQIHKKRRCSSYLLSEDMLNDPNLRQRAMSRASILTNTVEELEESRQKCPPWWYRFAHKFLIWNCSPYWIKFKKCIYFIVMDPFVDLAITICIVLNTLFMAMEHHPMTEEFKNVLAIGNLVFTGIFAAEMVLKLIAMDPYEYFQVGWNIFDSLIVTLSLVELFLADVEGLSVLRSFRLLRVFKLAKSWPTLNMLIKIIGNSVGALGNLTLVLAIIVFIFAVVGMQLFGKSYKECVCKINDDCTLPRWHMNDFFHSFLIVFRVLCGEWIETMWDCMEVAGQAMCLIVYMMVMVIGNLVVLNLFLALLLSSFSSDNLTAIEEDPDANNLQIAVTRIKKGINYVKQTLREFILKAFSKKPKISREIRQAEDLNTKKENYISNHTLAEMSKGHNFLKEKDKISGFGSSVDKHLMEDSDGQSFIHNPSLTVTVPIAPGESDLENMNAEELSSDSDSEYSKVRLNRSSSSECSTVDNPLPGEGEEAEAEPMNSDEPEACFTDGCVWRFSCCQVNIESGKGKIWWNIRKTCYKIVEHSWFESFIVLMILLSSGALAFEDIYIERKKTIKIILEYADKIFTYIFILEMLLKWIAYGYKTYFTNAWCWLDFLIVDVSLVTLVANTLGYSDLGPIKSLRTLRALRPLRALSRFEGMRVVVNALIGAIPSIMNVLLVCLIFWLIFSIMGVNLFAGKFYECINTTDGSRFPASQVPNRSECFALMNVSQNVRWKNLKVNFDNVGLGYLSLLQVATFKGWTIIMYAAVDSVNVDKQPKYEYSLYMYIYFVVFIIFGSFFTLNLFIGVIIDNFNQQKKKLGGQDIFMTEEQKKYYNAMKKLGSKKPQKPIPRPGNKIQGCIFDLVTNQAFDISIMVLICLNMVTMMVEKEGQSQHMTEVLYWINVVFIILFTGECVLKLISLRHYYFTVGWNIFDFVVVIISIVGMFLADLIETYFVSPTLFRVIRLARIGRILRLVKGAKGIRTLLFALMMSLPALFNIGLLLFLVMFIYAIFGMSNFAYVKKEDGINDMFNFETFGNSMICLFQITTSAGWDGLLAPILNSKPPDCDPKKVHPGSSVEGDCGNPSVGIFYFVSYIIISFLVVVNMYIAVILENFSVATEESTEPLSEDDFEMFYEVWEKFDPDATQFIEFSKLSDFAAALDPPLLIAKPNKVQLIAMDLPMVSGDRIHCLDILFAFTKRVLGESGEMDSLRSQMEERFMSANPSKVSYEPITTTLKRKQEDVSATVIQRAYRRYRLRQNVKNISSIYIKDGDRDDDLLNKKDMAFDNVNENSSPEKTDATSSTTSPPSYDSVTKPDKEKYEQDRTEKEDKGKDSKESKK

Compound: O=S(=O)(Nc1ccncn1)c1ccc2c(-c3ccc(C(F)(F)F)cc3C3CC3)ncnc2c1 [Example 36, 4-(2-CYCLOPROPYL-4-(TRIFLUOROMETHYL)-PHENYL)-N-(PYRIMIDIN-4-YL)QUINAZOLINE-7-SULFONAMIDE]
pIC50 (in-vitro PX (PatchXpress) data): 6.13

Compound: COc1cc(-c2ccc(Cl)c(C)c2)c(F)cc1-c1nccc2cc(S(=O)(=O)Nc3ncccn3)ccc12 [Example 88, 1-(4′-chloro-2-fluoro-5-methoxy-3′-methyl-4-biphenylyl)-N-2-pyrimidinyl-6-isoquinolinesulfonamide]
pIC50 (PatchXpress (PX), in vitro): 6.64

Compound: COc1nc(N(C)CC(C)C)ccc1-c1nccc2cc(S(=O)(=O)Nc3ccncn3)ccc12 [Example 68, 1-(2-methoxy-6-(methyl(2-methylpropyl)amino)-3-pyridinyl)-N-4-pyrimidinyl-6-isoquinolinesulfonamide]
pIC50 (PatchXpress (PX), in vitro): 5.54

Compound: COc1cc(-c2cc(F)cnc2OC)c(F)cc1-c1nccc2cc(S(=O)(=O)Nc3ncccn3)ccc12 [Example 92, 1-(5-fluoro-4-(5-fluoro-2-methoxy-3-pyridinyl)-2-methoxyphenyl)-N-2-pyrimidinyl-6-isoquinolinesulfonamide]
pIC50 (PatchXpress (PX), in vitro): 6.56

Compound: COc1cc(-c2ccc(C)c(Cl)c2)c(Cl)cc1-c1nccc2cc(S(=O)(=O)Nc3ccon3)ccc12 [Example 96, 1-(2,3′-dichloro-5-methoxy-4′-methyl-4-biphenylyl)-N-3-isoxazolyl-6-isoquinolinesulfonamide]
pIC50 (PatchXpress (PX), in vitro): 7.13

Compound: COc1cc(-c2ccc(Cl)c(C)c2)c(Cl)cc1-c1nccc2cc(S(=O)(=O)Nc3ccon3)ccc12 [Example 119, 1-(2,4′-dichloro-5-methoxy-3′-methyl-4-biphenylyl)-N-3-isoxazolyl-6-isoquinolinesulfonamide]
pIC50 (in-vitro PX data): 7.13

The remaining lines, values ahead:

pIC50 (in-vitro PX data): 5.81
Compound: COc1cc(-c2cc(F)cc(F)c2)ccc1-c1nccc2cc(S(=O)(=O)Nc3nnc(C)s3)ccc12 [Example 133, 1-(3′,5′-difluoro-3-methoxy-4-biphenylyl)-N-(5-methyl-1,3,4-thiadiazol-2-yl)-6-isoquinolinesulfonamide]

pIC50 (in-vitro PX data): 5.38
Compound: COc1cc(-c2cc(F)cc(F)c2)ccc1-c1nccc2cc(S(=O)(=O)Nc3cc(C)on3)ccc12 [Example 126, 1-(3′,5′-difluoro-3-methoxy-4-biphenylyl)-N-(5-methyl-3-isoxazolyl)-6-isoquinolinesulfonamide]

pIC50 (PatchXpress (PX), in vitro): 6.75
Compound: COc1cc(-c2ccc(Cl)c(C)c2)c(F)cc1-c1nccc2cc(S(=O)(=O)Nc3cccnn3)ccc12 [Example 87, 1-(4′-chloro-2-fluoro-5-methoxy-3′-methyl-4-biphenylyl)-N-3-pyridazinyl-6-isoquinolinesulfonamide]

pIC50 (in-vitro Nav 1.7 PX data): 6.10
Compound: COc1cc(-c2cccnc2OC)ccc1-c1nccc2cc(S(=O)(=O)Nc3nncs3)ccc12 [Example 166, 1-(2-methoxy-4-(2-methoxy-3-pyridinyl)phenyl)-N-1,3,4-thiadiazol-2-yl-6-isoquinolinesulfonamide]

pIC50 (PatchXpress (PX), in vitro): 7.02
Compound: COc1cc(-c2ccc(F)c(C)c2)c(F)cc1-c1nccc2cc(S(=O)(=O)Nc3ccon3)ccc12 [Example 89, 1-(2,4′-difluoro-5-methoxy-3′-methyl-4-biphenylyl)-N-3-isoxazolyl-6-isoquinolinesulfonamide]

pIC50 (in-vitro PX): 5.86
Compound: COc1cc(-c2cccc(F)n2)c(F)cc1-c1nccc2cc(S(=O)(=O)Nc3nncs3)ccc12 [Example 212, 1-(5-fluoro-4-(6-fluoro-2-pyridinyl)-2-methoxyphenyl)-N-1,3,4-thiadiazol-2-yl-6-isoquinolinesulfonamide]

pIC50 (in-vitro PX): 5.77
Compound: COc1cc(-c2cccc(F)c2)ccc1C1c2ccc(S(=O)(=O)Nc3nncs3)cc2CCN1C(C)=O (centres unmarked) [Example 52, 2-ACETYL-1-(3′-FLUORO-3-METHOXY-[1,1′-BIPHENYL]-4-YL)-N-(1,3,4-THIADIAZOL-2-YL)-1,2,3,4-TETRAHYDROISOQUINOLINE-6-SULFONAMIDE]

pIC50 (in-vitro PX): 6.90
Compound: COc1cc(-c2cccc(F)c2)c(Cl)cc1-c1n[nH]c(=O)c2cc(S(=O)(=O)Nc3ccon3)ccc12 [Example 232, 1-(2-chloro-3′-fluoro-5-methoxy-4-biphenylyl)-N-3-isoxazolyl-4-oxo-3,4-dihydro-6-phthalazinesulfonamide]
